How the values were obtained:
[1] = target: T1, Sodium/glucose cotransporter 2 (Homo sapiens, UniProt P31639); test: Inhibition of SGLT2 (unknown origin)
T1 sequence (P31639 whole entry): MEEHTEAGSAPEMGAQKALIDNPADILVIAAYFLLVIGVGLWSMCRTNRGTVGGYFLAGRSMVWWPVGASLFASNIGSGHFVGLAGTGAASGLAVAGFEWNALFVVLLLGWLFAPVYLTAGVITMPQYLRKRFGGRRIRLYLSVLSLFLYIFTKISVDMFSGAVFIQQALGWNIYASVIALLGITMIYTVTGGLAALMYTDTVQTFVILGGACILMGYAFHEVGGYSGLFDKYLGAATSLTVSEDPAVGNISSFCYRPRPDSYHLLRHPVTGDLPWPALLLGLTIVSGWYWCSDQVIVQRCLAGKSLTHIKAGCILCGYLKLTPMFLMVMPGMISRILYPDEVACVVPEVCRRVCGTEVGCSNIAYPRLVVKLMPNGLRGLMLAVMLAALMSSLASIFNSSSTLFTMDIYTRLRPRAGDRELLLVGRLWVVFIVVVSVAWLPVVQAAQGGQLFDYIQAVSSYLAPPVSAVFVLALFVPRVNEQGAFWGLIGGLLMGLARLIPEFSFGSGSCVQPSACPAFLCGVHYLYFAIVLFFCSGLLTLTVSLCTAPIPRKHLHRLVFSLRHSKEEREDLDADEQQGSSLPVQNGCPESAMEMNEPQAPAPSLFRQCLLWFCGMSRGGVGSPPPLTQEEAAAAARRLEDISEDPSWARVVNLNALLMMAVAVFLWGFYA

[2] = Half life in human; type: ADME
[3] = target: Voltage-dependent calcium channel subunit alpha-2/delta-1 (Homo sapiens) (UniProt P54289); test: Binding affinity to human alpha2delta1 Voltage-dependent calcium channel assessed as dissociation half life
[4] = target: Voltage-dependent calcium channel subunit alpha-2/delta-2 (Homo sapiens) (UniProt Q9NY47)
Voltage-dependent calcium channel subunit alpha-2/delta-2 (Homo sapiens), sequence (Q9NY47 19-1001 limits assumed): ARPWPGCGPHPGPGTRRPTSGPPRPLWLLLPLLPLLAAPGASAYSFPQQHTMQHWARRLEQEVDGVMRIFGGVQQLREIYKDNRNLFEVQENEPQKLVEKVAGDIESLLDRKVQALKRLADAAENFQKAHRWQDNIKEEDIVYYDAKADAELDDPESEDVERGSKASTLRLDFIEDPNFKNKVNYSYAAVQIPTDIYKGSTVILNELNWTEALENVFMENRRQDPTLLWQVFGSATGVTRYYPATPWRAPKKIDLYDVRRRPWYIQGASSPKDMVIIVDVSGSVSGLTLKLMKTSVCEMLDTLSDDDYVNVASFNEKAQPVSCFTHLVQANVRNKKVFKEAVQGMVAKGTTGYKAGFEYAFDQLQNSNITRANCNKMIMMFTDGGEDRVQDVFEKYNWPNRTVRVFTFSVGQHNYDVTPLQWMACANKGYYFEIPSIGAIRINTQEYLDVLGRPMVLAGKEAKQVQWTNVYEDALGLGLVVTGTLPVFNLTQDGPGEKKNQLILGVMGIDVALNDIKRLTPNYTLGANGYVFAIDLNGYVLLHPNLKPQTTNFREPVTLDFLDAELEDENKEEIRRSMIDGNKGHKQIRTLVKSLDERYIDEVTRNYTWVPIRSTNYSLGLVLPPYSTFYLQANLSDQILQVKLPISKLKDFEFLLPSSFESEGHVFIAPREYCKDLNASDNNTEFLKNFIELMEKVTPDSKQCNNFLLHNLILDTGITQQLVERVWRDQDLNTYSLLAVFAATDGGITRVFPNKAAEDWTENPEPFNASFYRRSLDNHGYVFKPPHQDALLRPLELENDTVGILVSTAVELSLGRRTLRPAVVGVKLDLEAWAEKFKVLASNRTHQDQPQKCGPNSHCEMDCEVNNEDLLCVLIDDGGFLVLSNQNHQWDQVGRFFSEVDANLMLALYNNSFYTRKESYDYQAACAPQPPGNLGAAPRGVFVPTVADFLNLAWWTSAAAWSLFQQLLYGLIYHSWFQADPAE
Voltage-dependent calcium channel subunit alpha-2/delta-2 (Homo sapiens), sequence (Q9NY47 1002-1150 limits assumed): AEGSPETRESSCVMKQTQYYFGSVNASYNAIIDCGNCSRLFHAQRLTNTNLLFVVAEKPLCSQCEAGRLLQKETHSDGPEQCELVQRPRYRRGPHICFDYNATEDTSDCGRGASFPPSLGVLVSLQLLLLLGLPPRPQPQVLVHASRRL
Description: Binding affinity to human alpha2delta2 Voltage-dependent calcium channel assessed as dissociation half life

Voltage-dependent calcium channel subunit alpha-2/delta-1 (Homo sapiens), sequence (P54289 25-956 limits assumed): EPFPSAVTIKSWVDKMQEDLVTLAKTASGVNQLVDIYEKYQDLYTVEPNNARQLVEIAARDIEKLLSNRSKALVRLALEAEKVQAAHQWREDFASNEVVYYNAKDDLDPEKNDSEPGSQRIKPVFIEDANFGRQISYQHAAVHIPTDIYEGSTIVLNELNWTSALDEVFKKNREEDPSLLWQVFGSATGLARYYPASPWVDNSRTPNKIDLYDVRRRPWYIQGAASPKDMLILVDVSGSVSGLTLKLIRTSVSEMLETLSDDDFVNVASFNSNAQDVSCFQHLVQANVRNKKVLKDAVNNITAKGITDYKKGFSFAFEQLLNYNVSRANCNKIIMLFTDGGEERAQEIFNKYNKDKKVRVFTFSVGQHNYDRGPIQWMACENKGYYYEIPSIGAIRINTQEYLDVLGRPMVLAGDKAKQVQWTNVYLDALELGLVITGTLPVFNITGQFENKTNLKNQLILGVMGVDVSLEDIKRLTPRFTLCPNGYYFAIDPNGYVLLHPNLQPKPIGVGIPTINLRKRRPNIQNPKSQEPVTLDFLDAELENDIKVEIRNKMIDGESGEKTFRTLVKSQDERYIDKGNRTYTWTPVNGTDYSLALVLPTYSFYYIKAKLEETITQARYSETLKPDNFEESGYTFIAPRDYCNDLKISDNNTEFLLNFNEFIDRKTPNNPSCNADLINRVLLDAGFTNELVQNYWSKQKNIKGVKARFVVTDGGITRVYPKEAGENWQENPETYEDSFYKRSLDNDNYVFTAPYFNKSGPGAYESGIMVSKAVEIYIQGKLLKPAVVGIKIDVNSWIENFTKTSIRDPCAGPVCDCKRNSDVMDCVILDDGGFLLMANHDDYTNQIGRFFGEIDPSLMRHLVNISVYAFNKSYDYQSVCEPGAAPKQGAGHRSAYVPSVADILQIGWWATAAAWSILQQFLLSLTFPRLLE
Voltage-dependent calcium channel subunit alpha-2/delta-1 (Homo sapiens), sequence (P54289 957-1103 limits assumed): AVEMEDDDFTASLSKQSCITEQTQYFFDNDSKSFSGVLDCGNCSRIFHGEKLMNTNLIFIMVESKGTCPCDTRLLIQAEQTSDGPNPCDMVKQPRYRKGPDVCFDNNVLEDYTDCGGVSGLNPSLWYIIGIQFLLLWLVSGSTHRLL

| Structure (SMILES) | Ki [1] [nM] | half-life [2] [h] | T1/2 [3] [h] | T1/2 [4] [h] |
| --- | --- | --- | --- | --- |
| CCOC(=O)OC[C@H]1O[C@@H](Oc2nn(C(C)C)c(C)c2Cc2ccc(OC(C)C)cc2)[C@H](O)[C@@H](O)[C@@H]1O [REMOGLIFLOZIN ETABONATE] | 12.4 | 2 | – | – |
| CCC1=C[C@@H]2[C@H](C1)C[C@]2(CN)CC(=O)O | – | – | > 11 | – |
| CC(C)C[C@H](CN)CC(=O)O | – | – | 1.5 | 1.5 |
